Numbers after ± are expanded uncertainties.
Test: xn = mol fraction of the nth substance listed
Details: 101 kPa, Liquid; for speed of sound: Frequency=3 MHz, Sing-around technique in a fixed-path interferometer; for mass density: Vibrating tube method

COC(C)(C)C [2-methoxy-2-methylpropane] + CCCCO
speed of sound (298.15 K, x1 = 0.03132): 1233.9 ± 1.2 m/s | speed of sound (298.15 K, x1 = 0.06569): 1227 ± 1.2 m/s | speed of sound (298.15 K, x1 = 0.1315): 1213.6 ± 1.2 m/s | speed of sound (298.15 K, x1 = 0.193): 1200.7 ± 1.2 m/s | speed of sound (298.15 K, x1 = 0.2647): 1185.7 ± 1.2 m/s | speed of sound (298.15 K, x1 = 0.3401): 1170.3 ± 1.2 m/s | speed of sound (298.15 K, x1 = 0.3916): 1159.3 ± 1.2 m/s | speed of sound (298.15 K, x1 = 0.4652): 1144.3 ± 1.2 m/s | speed of sound (298.15 K, x1 = 0.5451): 1128.3 ± 1.1 m/s | speed of sound (298.15 K, x1 = 0.6001): 1117.3 ± 1.1 m/s | speed of sound (298.15 K, x1 = 0.6708): 1103.5 ± 1.1 m/s | speed of sound (298.15 K, x1 = 0.7347): 1091.3 ± 1.1 m/s | speed of sound (298.15 K, x1 = 0.7953): 1079.5 ± 1.1 m/s | speed of sound (298.15 K, x1 = 0.8755): 1063.6 ± 1.1 m/s | speed of sound (298.15 K, x1 = 0.9367): 1050.6 ± 1.1 m/s | speed of sound (298.15 K, x1 = 1): 1036.4 ± 1.1 m/s | mass density (298.15 K, x1 = 0.03132): 803.61 ± 0.15 kg/m3 | mass density (298.15 K, x1 = 0.06569): 801.27 ± 0.15 kg/m3 | mass density (298.15 K, x1 = 0.1315): 796.77 ± 0.15 kg/m3 | mass density (298.15 K, x1 = 0.193): 792.46 ± 0.15 kg/m3 | mass density (298.15 K, x1 = 0.2647): 787.54 ± 0.15 kg/m3 | mass density (298.15 K, x1 = 0.3401): 782.26 ± 0.15 kg/m3 | mass density (298.15 K, x1 = 0.3916): 778.65 ± 0.15 kg/m3 | mass density (298.15 K, x1 = 0.4652): 773.54 ± 0.15 kg/m3 | mass density (298.15 K, x1 = 0.5451): 768.04 ± 0.15 kg/m3 | mass density (298.15 K, x1 = 0.6001): 764.05 ± 0.15 kg/m3 | mass density (298.15 K, x1 = 0.6708): 759.06 ± 0.16 kg/m3 | mass density (298.15 K, x1 = 0.7347): 754.56 ± 0.16 kg/m3 | mass density (298.15 K, x1 = 0.7953): 750.27 ± 0.16 kg/m3 | mass density (298.15 K, x1 = 0.8755): 744.44 ± 0.16 kg/m3 | mass density (298.15 K, x1 = 0.9367): 739.95 ± 0.16 kg/m3 | mass density (298.15 K, x1 = 1): 735.22 ± 0.16 kg/m3 | speed of sound (308.15 K, x1 = 0.03132): 1200 ± 1.2 m/s | speed of sound (308.15 K, x1 = 0.06569): 1192.7 ± 1.2 m/s | speed of sound (308.15 K, x1 = 0.1315): 1178.4 ± 1.2 m/s | speed of sound (308.15 K, x1 = 0.193): 1164.5 ± 1.2 m/s | speed of sound (308.15 K, x1 = 0.2647): 1148.6 ± 1.2 m/s | speed of sound (308.15 K, x1 = 0.3401): 1131.9 ± 1.1 m/s | speed of sound (308.15 K, x1 = 0.3916): 1120.5 ± 1.1 m/s | speed of sound (308.15 K, x1 = 0.4652): 1104.6 ± 1.1 m/s | speed of sound (308.15 K, x1 = 0.5451): 1087.4 ± 1.1 m/s | speed of sound (308.15 K, x1 = 0.6001): 1076.1 ± 1.1 m/s | speed of sound (308.15 K, x1 = 0.6708): 1061.5 ± 1.1 m/s | speed of sound (308.15 K, x1 = 0.7347): 1048.4 ± 1.1 m/s | speed of sound (308.15 K, x1 = 0.7953): 1036 ± 1.1 m/s | speed of sound (308.15 K, x1 = 0.8755): 1019 ± 1.1 m/s | speed of sound (308.15 K, x1 = 0.9367): 1005.4 ± 1.1 m/s | speed of sound (308.15 K, x1 = 1): 990.57 ± 1.1 m/s | mass density (308.15 K, x1 = 0.03132): 795.86 ± 0.15 kg/m3 | mass density (308.15 K, x1 = 0.06569): 793.42 ± 0.15 kg/m3 | mass density (308.15 K, x1 = 0.1315): 788.76 ± 0.15 kg/m3 | mass density (308.15 K, x1 = 0.193): 784.25 ± 0.15 kg/m3 | mass density (308.15 K, x1 = 0.2647): 779.11 ± 0.15 kg/m3 | mass density (308.15 K, x1 = 0.3401): 773.61 ± 0.15 kg/m3 | mass density (308.15 K, x1 = 0.3916): 769.83 ± 0.15 kg/m3 | mass density (308.15 K, x1 = 0.4652): 764.48 ± 0.15 kg/m3 | mass density (308.15 K, x1 = 0.5451): 758.63 ± 0.16 kg/m3 | mass density (308.15 K, x1 = 0.6001): 754.64 ± 0.16 kg/m3 | mass density (308.15 K, x1 = 0.6708): 749.44 ± 0.16 kg/m3 | mass density (308.15 K, x1 = 0.7347): 744.74 ± 0.16 kg/m3 | mass density (308.15 K, x1 = 0.7953): 740.28 ± 0.16 kg/m3 | mass density (308.15 K, x1 = 0.8755): 734.2 ± 0.16 kg/m3 | mass density (308.15 K, x1 = 0.9367): 729.44 ± 0.16 kg/m3 | mass density (308.15 K, x1 = 1): 724.64 ± 0.16 kg/m3 | speed of sound (318.15 K, x1 = 0.03132): 1166.3 ± 1.2 m/s | speed of sound (318.15 K, x1 = 0.06569): 1158.4 ± 1.2 m/s | speed of sound (318.15 K, x1 = 0.1315): 1143 ± 1.2 m/s | speed of sound (318.15 K, x1 = 0.193): 1128.5 ± 1.2 m/s | speed of sound (318.15 K, x1 = 0.2647): 1111.7 ± 1.1 m/s | speed of sound (318.15 K, x1 = 0.3401): 1094 ± 1.1 m/s | speed of sound (318.15 K, x1 = 0.3916): 1082 ± 1.1 m/s | speed of sound (318.15 K, x1 = 0.4652): 1065.2 ± 1.1 m/s | speed of sound (318.15 K, x1 = 0.5451): 1047.2 ± 1.1 m/s | speed of sound (318.15 K, x1 = 0.6001): 1034.9 ± 1.1 m/s | speed of sound (318.15 K, x1 = 0.6708): 1019.5 ± 1.1 m/s | speed of sound (318.15 K, x1 = 0.7347): 1005.7 ± 1.1 m/s | speed of sound (318.15 K, x1 = 0.7953): 992.74 ± 1.1 m/s | speed of sound (318.15 K, x1 = 0.8755): 974.75 ± 1.1 m/s | speed of sound (318.15 K, x1 = 0.9367): 960.39 ± 1.1 m/s | speed of sound (318.15 K, x1 = 1): 944.94 ± 1.1 m/s | mass density (318.15 K, x1 = 0.03132): 788.07 ± 0.15 kg/m3 | mass density (318.15 K, x1 = 0.06569): 785.54 ± 0.15 kg/m3 | mass density (318.15 K, x1 = 0.1315): 780.66 ± 0.15 kg/m3 | mass density (318.15 K, x1 = 0.193): 775.99 ± 0.15 kg/m3 | mass density (318.15 K, x1 = 0.2647): 770.65 ± 0.15 kg/m3 | mass density (318.15 K, x1 = 0.3401): 764.93 ± 0.15 kg/m3 | mass density (318.15 K, x1 = 0.3916): 761.01 ± 0.16 kg/m3 | mass density (318.15 K, x1 = 0.4652): 755.43 ± 0.16 kg/m3 | mass density (318.15 K, x1 = 0.5451): 749.33 ± 0.16 kg/m3 | mass density (318.15 K, x1 = 0.6001): 745.19 ± 0.16 kg/m3 | mass density (318.15 K, x1 = 0.6708): 739.77 ± 0.16 kg/m3 | mass density (318.15 K, x1 = 0.7347): 734.85 ± 0.16 kg/m3 | mass density (318.15 K, x1 = 0.7953): 730.2 ± 0.16 kg/m3 | mass density (318.15 K, x1 = 0.8755): 723.89 ± 0.16 kg/m3 | mass density (318.15 K, x1 = 0.9367): 719.05 ± 0.17 kg/m3 | mass density (318.15 K, x1 = 1): 714.01 ± 0.17 kg/m3 | speed of sound (328.15 K, x1 = 0.03132): 1132.8 ± 1.2 m/s | speed of sound (328.15 K, x1 = 0.06569): 1124.4 ± 1.2 m/s | speed of sound (328.15 K, x1 = 0.1315): 1108.2 ± 1.1 m/s | speed of sound (328.15 K, x1 = 0.193): 1092.7 ± 1.1 m/s | speed of sound (328.15 K, x1 = 0.2647): 1075 ± 1.1 m/s | speed of sound (328.15 K, x1 = 0.3401): 1056.4 ± 1.1 m/s | speed of sound (328.15 K, x1 = 0.3916): 1043.8 ± 1.1 m/s | speed of sound (328.15 K, x1 = 0.4652): 1026.3 ± 1.1 m/s | speed of sound (328.15 K, x1 = 0.5451): 1007 ± 1.1 m/s | speed of sound (328.15 K, x1 = 0.6001): 995.48 ± 1.1 m/s | speed of sound (328.15 K, x1 = 0.6708): 978.48 ± 1.1 m/s | speed of sound (328.15 K, x1 = 0.7347): 963.43 ± 1.1 m/s | speed of sound (328.15 K, x1 = 0.8755): 932.29 ± 1.1 m/s | speed of sound (328.15 K, x1 = 0.9367): 917.28 ± 1.1 m/s | mass density (328.15 K, x1 = 0.03132): 780.19 ± 0.15 kg/m3 | mass density (328.15 K, x1 = 0.06569): 777.56 ± 0.15 kg/m3 | mass density (328.15 K, x1 = 0.1315): 772.49 ± 0.15 kg/m3 | mass density (328.15 K, x1 = 0.193): 767.64 ± 0.15 kg/m3 | mass density (328.15 K, x1 = 0.2647): 762.09 ± 0.16 kg/m3 | mass density (328.15 K, x1 = 0.3401): 756.13 ± 0.16 kg/m3 | mass density (328.15 K, x1 = 0.3916): 752.07 ± 0.16 kg/m3 | mass density (328.15 K, x1 = 0.4652): 746.28 ± 0.16 kg/m3 | mass density (328.15 K, x1 = 0.5451): 739.91 ± 0.16 kg/m3 | mass density (328.15 K, x1 = 0.6001): 735.66 ± 0.16 kg/m3 | mass density (328.15 K, x1 = 0.6708): 729.95 ± 0.16 kg/m3 | mass density (328.15 K, x1 = 0.7347): 724.9 ± 0.16 kg/m3 | mass density (328.15 K, x1 = 0.8755): 713.5 ± 0.17 kg/m3 | mass density (328.15 K, x1 = 0.9367): 708.44 ± 0.17 kg/m3 | mass density (328.15 K, x1 = 1): 703.38 ± 0.17 kg/m3

From the NIST ThermoML archive (doi:10.1016/j.jct.2015.06.009)
